For this data set, the target named is CYP3A4 (Homo sapiens, UniProt P08684). The experiment in a line: Inhibition of CYP3A4 at 10 uM by fluorimetry assay in presence of NADP; values are per cent of control.
Chain of CYP3A4 (P08684 whole entry): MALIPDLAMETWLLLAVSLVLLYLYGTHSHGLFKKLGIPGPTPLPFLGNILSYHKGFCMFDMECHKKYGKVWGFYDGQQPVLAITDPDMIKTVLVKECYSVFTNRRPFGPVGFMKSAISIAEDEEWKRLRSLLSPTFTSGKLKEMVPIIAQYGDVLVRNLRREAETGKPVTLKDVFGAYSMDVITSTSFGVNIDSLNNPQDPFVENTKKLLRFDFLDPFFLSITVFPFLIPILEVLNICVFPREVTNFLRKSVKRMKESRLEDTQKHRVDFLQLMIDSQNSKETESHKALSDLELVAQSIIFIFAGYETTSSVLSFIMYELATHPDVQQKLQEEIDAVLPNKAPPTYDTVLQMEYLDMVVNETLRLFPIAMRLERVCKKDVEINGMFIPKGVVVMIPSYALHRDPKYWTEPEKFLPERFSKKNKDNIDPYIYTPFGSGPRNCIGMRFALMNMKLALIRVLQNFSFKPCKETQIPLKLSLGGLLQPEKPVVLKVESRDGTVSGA
`N[C@@H](CC(=O)N1N=CCC1C(=O)NCc1ccccc1)Cc1cc(F)c(F)cc1F` (stereo not given in full): the residual activity at 10 µM was 18.8%.
In the case of `N[C@@H](CC(=O)N1N=CCC1C(=O)NCc1ccc(C(=O)O)cc1)Cc1cc(F)c(F)cc1F` (stereo not given in full) it was 62%; in that of `CCOC(=O)COc1ccc(NC(=O)C2CC=NN2C(=O)C[C@H](N)Cc2cc(F)c(F)cc2F)cc1` (stereo not given in full), 6.9%; in that of `N[C@@H](CC(=O)N1N=CCC1C(=O)Nc1ccc(OCC(=O)O)cc1)Cc1cc(F)c(F)cc1F` (stereo not given in full), 59.3%.
Under `Nc1ccc(CNC(=O)C2CC=NN2C(=O)C[C@H](N)Cc2cc(F)c(F)cc2F)cc1` (stereo not given in full) stands 4.5%.
